Assay: xn = mol fraction of the nth substance listed
Details: 100 kPa

CC[n+]1ccn(C)c1.N#C[S-] + CO
Details	electrical conductivity [S/m]	viscosity [mPa·s]
293.15 K, x1 = 0.0988	1.83	2.9
293.15 K, x1 = 0.1966	2.24	5
293.15 K, x1 = 0.3005	2.25	7.5
293.15 K, x1 = 0.3859	2.16	9.5
293.15 K, x1 = 0.5006	2	12.3
293.15 K, x1 = 0.5972	1.87	14.9
293.15 K, x1 = 0.6996	1.76	18
293.15 K, x1 = 0.804	1.68	21
293.15 K, x1 = 0.8997	1.64	24
293.15 K, x1 = 1	1.64	27
298.15 K, x1 = 0.0988	2.08	2.5
298.15 K, x1 = 0.1966	2.44	4.4
298.15 K, x1 = 0.3005	2.45	6.4
298.15 K, x1 = 0.3859	2.36	8.1
298.15 K, x1 = 0.5006	2.2	10.6
298.15 K, x1 = 0.6996	1.96	15.2
298.15 K, x1 = 0.804	1.88	18
298.15 K, x1 = 0.8997	1.84	20
298.15 K, x1 = 1	1.83	23
303.15 K, x1 = 0.0988	2.34	2.1
303.15 K, x1 = 0.1966	2.67	3.8
303.15 K, x1 = 0.3005	2.66	5.5
303.15 K, x1 = 0.5006	2.42	9.1
303.15 K, x1 = 0.5972	2.29	11
303.15 K, x1 = 0.6996	2.18	13.1
303.15 K, x1 = 0.804	2.1	15.3
303.15 K, x1 = 0.8997	2.05	18
308.15 K, x1 = 0.1966	2.89	3.3
308.15 K, x1 = 0.3005	2.88	4.8
308.15 K, x1 = 0.3859	2.81	6.1
308.15 K, x1 = 0.5972	2.52	9.6
308.15 K, x1 = 0.6996	2.41	11.4
308.15 K, x1 = 0.804	2.33	13.4
308.15 K, x1 = 0.8997	2.29	15.5
313.15 K, x1 = 0.0988	2.82	1.7
313.15 K, x1 = 0.1966	3.12	2.9
313.15 K, x1 = 0.3005	3.12	4.2
313.15 K, x1 = 0.3859	3.04	5.3
313.15 K, x1 = 0.5006	2.89	6.9
313.15 K, x1 = 0.5972	2.77	8.3
313.15 K, x1 = 0.6996	2.66	10
313.15 K, x1 = 0.804	2.58	11.7
313.15 K, x1 = 0.8997	2.54	13.5
313.15 K, x1 = 1	2.52	15.4
318.15 K, x1 = 0.0988	3.06	1.5
318.15 K, x1 = 0.1966	3.4	2.5
318.15 K, x1 = 0.3005	3.4	3.6
318.15 K, x1 = 0.3859	3.31	4.6
318.15 K, x1 = 0.5006	3.15	6
318.15 K, x1 = 0.5972	3.04	7.3
318.15 K, x1 = 0.6996	2.93	8.8
318.15 K, x1 = 0.804	2.85	10.3
318.15 K, x1 = 0.8997	2.81	11.9
318.15 K, x1 = 1	2.79	13.6
323.15 K, x1 = 0.0988	3.31	1.35
323.15 K, x1 = 0.3859	3.6	4
323.15 K, x1 = 0.5006	3.4	5.3
323.15 K, x1 = 0.5972	3.3	6.4
323.15 K, x1 = 0.6996	3.22	7.7

CO + CC[n+]1ccn(C)c1.N#C[S-]
x2 = 0
Details	viscosity [mPa·s]
293.15 K	0.59
303.15 K	0.51
308.15 K	0.48
313.15 K	0.45
323.15 K	0.41
